This is an account of results in patent US20090197853A1, “METHODS AND COMPOSITIONS OF TREATING CANCER” (priority 2005, published 2009).

The subject of data set [1] is A549 human lung cancer cells. Nature of the data set: Gene expression profiling on Affymetrix U133A microarrays, plateau phase A549 cultures. It is filed as cell-based. The following applies: 50 μM MGd. As to the method:
Methods: A549 human lung cancer cells (6.5×10^5 cells per T-162 flask in 45 mL complete RPMI 1640 medium) were seeded 10 days prior to treatment of non-cycling plateau phase cultures with MGd. At 4, 12, or 24 hours prior to RNA isolation, MGd (50 μM final concentration) or control (5% mannitol) solution was added to the cultures. Each time course experiment was performed in triplicate. After incubation, all cultures were washed once with PBS and total RNA was subjected to analysis on Affymetrix U133A microarrays, designed to interrogate the relative abundance of over 15,000 human genes.
We used Microarray Suite version 5.0 software (Affymetrix) to generate raw gene expression scores and normalized the relative hybridization signal from each experiment. All gene expression scores were set to a minimum value of one hundred in order to minimize noise associated with less robust measurements of rare transcripts. The permutation-based significance analysis of microarrays (SAM) was used to determine genes differentially expressed in response to MGd treatment compared to the control 5% mannitol-treated cultures (0.125% final) at each time point. We report all genes at least 2-fold differentially expressed with a less than a 1% False Discovery Rate (FDR) in response to MGd treatment (FIG. 10).

Data set [2] relates to metallothionein gene family members and ZnT1. Nature of the data set: Northern blot analysis, PC3 cultures. The data set is classed as cell-based. To be noted: PC3, 4 hours. Here is the method: (§1) Methods: Northern Blot Analysis—Plateau phase cultures of A549 cells were prepared as described above, except that T-25 flasks were used, and the number of cells initially plated scaled accordingly. Cultures were treated with 50 μM MGd, 5 μM Gd(OAc)3 or 5% mannitol for 4 hours, whereupon cultures were washed twice with PBS and RNA harvested as above. Alternatively, 7-day plateau phase A549 or PC3 cultures were treated with 50 μM MGd, 50-100 μM Zn(OAc)2, 50 μM CdCl2 or 5% mannitol for 24 hours (A549) or 4 hours (PC3) prior to washing and RNA analysis. Exponential phase Ramos cultures were treated for 6 hours. Northern blots were conducted and analyzed. Radio labeled metallothionein probe, designed to bind to a 113-bp region of 3′-UTR sequences from multiple metallothionein gene family members, was generated using 5′-[…]-3′ (forward) and 5′-[…]-3′ (reverse) PCR primers and the NEBlot kit (New England Biolabs, Inc.). Radio labeled ZnT1 probe was generated in a similar fashion using 5′-[…]-3′ (forward) and 5′-[…]-3′ (reverse) primers.

Data set [3] has the same test system. Nature of the data set: Northern blot analysis, Ramos cultures. The data set is classed as cell-based. The following applies: 6 hours. Here is the method: as §1
Data set [4] is described as follows: HPLC analysis of MGd stability in medium from plateau phase cultures. The data set is classed as physicochemical. The following applies: after 24 hours. Here is the method:
Results: Studies were performed to determine whether the metallothionein transcript up-regulation observed in the microarray analysis could be a consequence of free gadolinium(III) cation, released from MGd into the cell culture medium. […] Since the microarray analysis indicated strong transcript up-regulation after 4 hours of treatment with drug, this time interval was selected for further investigation of RNA transcript levels. RNA was harvested from plateau phase cultures treated with control vehicle, 50 μM MGd, or 5 μM Gd(OAc)3 for 4 hours. […] Thus, even assuming a 10% loss of drug over the initial 4 hour incubation period, the resulting release of Gd(III) ion into the culture medium would be insufficient to induce the observed metallothionein and ZnT1 transcript levels.

For data set [5], the system named is A549 cells. Nature of the data set: Intracellular free zinc (FluoZin-3 fluorescence), A549. The data set is classed as cell-based, human. To be noted: for Increase in cellular FluoZin-3 fluorescence: A549, MGd in the absence of actinomycin D. Here is the method:
Methods: The concentration of intracellular free zinc was assessed using the ion-specific fluorescent probe, FluoZin-3-AM™ (FluoZin-3, Molecular Probes, Inc.). […] Following treatment, cells were isolated by centrifugation. Cell pellets were washed and re-suspended in a solution of 0.5% BSA in PBS.

Data set [6] deals with Ramos cells. Nature of the data set: Intracellular free zinc (FluoZin-3 fluorescence), Ramos. To be noted: 10 μM MGd or 50 μM zinc alone. The data set is classed as cell-based. Here is the method: Methods: Intracellular Free Zinc. The concentration of intracellular free zinc was assessed using the ion-specific fluorescent probe, FluoZin-3-AM™ (FluoZin-3, Molecular Probes, Inc.). […] Following treatment, cells were isolated by centrifugation. Cell pellets were washed and re-suspended in a solution of 0.5% BSA in PBS.

Another data set deals with PC3 cells. As to the kind of experiment: Colony forming assay, PC3. To be noted: 10 μM MGd, 75 μM zinc. The data set is classed as cell-based.
Data set [7] relates to Ramos cells. Nature of the data set: Gene expression profiling on Human Genome U133 Plus 2.0 Arrays, Ramos cultures. The data set is classed as cell-based. To be noted: 4 hours. Here is the method: Methods: Gene Expression Profiling—MGd (10 μM), Zn(OAc)2 (25 or 50 μM, the combinations, or control (5% mannitol) solution were added to Ramos cultures. Each treatment was performed in triplicate. After 4 hours of incubation, all cultures were washed twice with 0.5% BSA in HBSS and total RNA was isolated and subjected to analysis on Human Genome U133 Plus 2.0 Arrays (Affymetrix, Santa Clara, Calif.). Microarray Suite version 5.0 software (Affymetrix) was used to generate raw gene expression scores and normalize the relative hybridization signal from each experiment. All gene expression scores were set to a minimum value of fifty in order to minimize noise associated with less robust measurements of rare transcripts. Both the parametric Student's t-test and the permutation-based significance analysis of microarrays (SAM) were used to determine genes differentially expressed in treatment versus control groups.

The subject of data set [8] is A549 cells.
Procedure: (§2) Methods: Cellular Viability. Cell viability was determined by using propidium iodide (PI) flow cytometric analysis. Cells from plateau phase cultures grown in T-25 flasks were harvested as described above, except that cells present in the growth medium and wash solution were isolated by centrifugation and included in the analysis. Cells were resuspended in 1 mL PBS, an aliquot of 3×10^5 cells transferred to a 4 mL tube, and the cells isolated by centrifugation. Cell pellets were resuspended in PBS supplemented with 2 μg/mL propidium iodide (Sigma), incubated for 5 minutes at ambient temperature, and subjected to flow cytometric analysis. Flow cytometry was performed on a FACSCalibur instrument and data were analyzed using the CellQuest Pro software package (BD Biosciences).
The subject of data set [9] is A549 cells. As to the kind of experiment: Cell viability by propidium iodide exclusion, A549.
Procedure: as §2
The subject of data set [10] is PC3 prostate cancer cells. Nature of the data set: Cell viability by propidium iodide exclusion, PC3. The data set is classed as cell-based.
Procedure: Methods: Cellular Viability—Cell viability was determined by using propidium iodide (PI) flow cytometric analysis. Cells from plateau phase cultures grown in T-25 flasks were harvested as described above, except that cells present in the growth medium and wash solution were isolated by centrifugation and included in the analysis. Cells were resuspended in 1 mL PBS, an aliquot of 3×10^5 cells transferred to a 4 mL tube, and the cells isolated by centrifugation. Cell pellets were resuspended in PBS supplemented with 2 μg/mL propidium iodide (Sigma), incubated for 5 minutes at ambient temperature, and subjected to flow cytometric analysis.

In the case of `CC(=O)[O-].CC(=O)[O-].CCc1c(CC)c2cc3nc(cnc4cc(OCCOCCOCCOC)c(OCCOCCOCCOC)cc4ncc4nc(cc1[n-]2)C(CCCO)=C4C)C(C)=C3CCCO.O.[Gd+3]` [MGd, Motexafin gadolinium], in [1] (all three time points), the “hbc647 transcript (likely 3′-UTR of ZnT1)” value is “up-regulated”. Also, the “Metallothionein isoform transcripts (microarray)” value in [1] (all time points) was “up-regulation”. The “Expression of metallothionein family members and ZnT1” value in data set [2] and in data set [3] was “increased” each time. The “Apparent loss of drug in medium (HPLC)” value in [4] is reported as 4%. For the same compound, the “Increase in cellular FluoZin-3 fluorescence” value in the data set with A549 cells [5] (serum medium) was 1.2 fold; with A549 cells [5] (serum-free medium), 1.1 fold. Also, the FluoZin-3 fluorescence result in the data set with Ramos cells [6] (by 12 hours) is “returned to baseline levels”; in the data set with Ramos cells [6] (within 2 hours), “small increases”. The Surviving fraction result in the data set with PC3 cells was “without effect”. The “MTF-1 regulated genes incl. metallothionein and zinc transporter family transcripts” value in the data set with Ramos cells [7] is on record as “up-regulation of MTF-1 regulated genes”. Further, in the data set with A549 cells [8], the “Effect of MGd on the cytotoxicity of Zn(OAc)2” value is reported as “potentiated”. The “Effect of MGd on the cytotoxicity of CdCl2” value in the data set with A549 cells [9] (A549 cells, FIG. 2A) is “attenuated”.
For `CC(=O)[O-].CC(=O)[O-].[Zn+2]` [Zn(OAc)2, Zinc acetate], the “Increased cell death (propidium iodide exclusion)” value in [10] (PC3, within 48 hr, at 100 μM zinc) came to 2 fold. In addition, the Cell viability entry in data set [10] (plateau phase PC3, after 24 hr) is on record as “little effect on cell viability”. In addition, the “Cell-associated fluorescence of FluoZin-3 at 530 nm” value in the data set with A549 cells [5] (A549, 4 hours, Zn(OAc)2 50-100 μM) is given as “significantly increased”. Besides, the FluoZin-3 fluorescence entry is “returned to baseline levels” in the data set with Ramos cells [6] (by 12 hours) and “small increases” in the data set with Ramos cells [6] (within 2 hours). Besides, the Surviving fraction result with PC3 cells is listed as “without effect”. Besides, the “Cellular viability (propidium iodide exclusion)” value in the data set with A549 cells [9] (A549, 24 hours, Zn(OAc)2 100 μM, CdCl2 50 μM, MGd 50 μM) is recorded as “no effect on cellular viability”.
